Experimental data from paper PMC8279416, “Structural Fine-Tuning of Desmuramylpeptide NOD2 Agonists Defines Their In Vivo Adjuvant Activity” (Journal of Medicinal Chemistry, 2021).
Values joined by “and” are separate entries in the source; they are usually repeats but may differ in a detail not shown here. Equal entries are not always repeated.

Molecular target: T1, NOD2 (Homo sapiens, UniProt Q9HC29)
T1 construct: host or cells: HEK-Blue NOD2 cells (HEK293-derived)
Test: HEK-Blue NOD2 cell line reporter assay (NF-κB-inducible SEAP)
Assay type: cell-based
Details: for NOD2 activity at 2 μM (fold increase) / EC50 / NOD2 activation (in words): HEK-Blue NOD2 cells; for NOD2 activity at 2 μM (fold increase): NF-κB transcriptional (SEAP) activity relative to 0.1% DMSO; for NOD2 activation (in words): compound alone; for Decrease of NOD2 agonistic activity/potency by a factor, relative to 1: ratio of EC50 versus compound 1
Description: To determine the NOD2 agonistic potential of the synthesized desmuramylpeptides at the cellular level, we used the validated and commercially available HEK-Blue NOD2 cell line reporter assay. HEK-Blue NOD2 cells were first treated for 18 h with MDP, 1, or the novel desmuramylpeptides at 2 μM. The NF-κB transcriptional activity measured was normalized to that of the vehicle treated (0.1% DMSO) control HEK-Blue NOD2 cells.
HEK-Blue NOD2 and NOD1 cell line reporter assays are derived from HEK293 cells by cotransfection of the hNOD2 or hNOD1 genes, respectively, and an NF-κB-inducible secreted embryonic alkaline phosphatase (SEAP) reporter gene. Following activation of NOD2 or NOD1, the resulting NF-κB induces production of SEAP, the levels of which can be quantified colorimetrically. […] After 18 h of incubation (37 °C, 5% CO2), secreted embryonic alkaline phosphatase (SEAP) activity was determined spectrophotometrically as absorbance at 630 nm (BioTek Synergy microplate reader; Winooski, VT, U.S.A.). EC50 values were calculated using Prism software (version 9; GraphPad Software, CA, U.S.A.). For determination of specificity, HEK-Blue NOD2 cells (2.5 × 10^5 cells/mL) were first pretreated for 1 h with a 10 μM NOD2 antagonist, before the addition of the compounds (2 μM), with incubation for 18 h. SEAP activity in the supernatants was determined as above. The experiments were run in duplicate and repeated as at least two independent biological replicates.

[1] = 18 h, 7 or 8 concentrations 1 nM to 20 μM, mean ± SEM

T1 sequence (Q9HC29 whole entry): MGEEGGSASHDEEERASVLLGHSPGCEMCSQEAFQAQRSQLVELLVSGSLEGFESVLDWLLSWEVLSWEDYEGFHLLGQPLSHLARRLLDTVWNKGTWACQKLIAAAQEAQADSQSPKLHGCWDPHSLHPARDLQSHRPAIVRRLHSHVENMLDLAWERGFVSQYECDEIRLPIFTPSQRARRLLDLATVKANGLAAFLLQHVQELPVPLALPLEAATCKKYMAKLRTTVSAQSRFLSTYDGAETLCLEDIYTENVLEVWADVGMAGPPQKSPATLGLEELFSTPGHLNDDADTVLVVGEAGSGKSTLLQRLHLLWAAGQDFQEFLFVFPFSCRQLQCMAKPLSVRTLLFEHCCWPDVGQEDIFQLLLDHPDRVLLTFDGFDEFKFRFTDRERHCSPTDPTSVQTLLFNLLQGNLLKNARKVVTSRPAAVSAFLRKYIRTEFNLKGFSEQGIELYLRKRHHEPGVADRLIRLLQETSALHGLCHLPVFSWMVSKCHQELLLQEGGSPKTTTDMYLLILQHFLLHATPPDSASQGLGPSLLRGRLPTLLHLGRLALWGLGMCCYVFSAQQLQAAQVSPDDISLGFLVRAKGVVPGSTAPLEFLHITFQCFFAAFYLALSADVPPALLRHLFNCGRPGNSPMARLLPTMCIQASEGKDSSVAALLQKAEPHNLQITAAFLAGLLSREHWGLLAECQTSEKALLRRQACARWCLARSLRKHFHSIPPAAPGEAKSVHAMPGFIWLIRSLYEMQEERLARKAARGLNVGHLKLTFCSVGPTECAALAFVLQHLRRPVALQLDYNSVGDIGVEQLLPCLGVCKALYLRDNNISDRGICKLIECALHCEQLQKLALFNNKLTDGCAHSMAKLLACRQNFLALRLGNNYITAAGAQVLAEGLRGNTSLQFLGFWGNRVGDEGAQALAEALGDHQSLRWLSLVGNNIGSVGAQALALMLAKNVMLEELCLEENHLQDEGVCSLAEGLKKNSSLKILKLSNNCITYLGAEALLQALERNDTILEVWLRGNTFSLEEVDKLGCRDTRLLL

NOD2 activity at 2 μM (fold increase) (18 h, mean ± SEM) | EC50 [1] [nM] | Compound | also measured
1.32 ± 0.05 fold increase | – | CCCCNC(=O)CC[C@@H](NC(=O)[C@@H](NC(=O)CNC(=O)/C=C/c1ccc(O)c(OC)c1)C(C)C)C(=O)OC(C)(C)C [Compound 59, tert-Butyl N^5-Butyl-N^2-((E)-3-(4-hydroxy-3-methoxyphenyl)acryloyl)glycyl-L-valyl-D-glutaminate] | –
2.45 ± 0.18 fold increase | 542 ± 48 | CCOC(=O)CC[C@@H](NC(=O)[C@@H](NC(=O)CNC(=O)/C=C/c1ccc(N)cc1)C(C)C)C(=O)OCC [Compound 24, Diethyl ((E)-3-(4-Aminophenyl)acryloyl)glycyl-L-valyl-D-glutamate] | –
1.73 ± 0.01 fold increase | 13900 ± 800 | CCOC(=O)CC[C@@H](NC(=O)[C@@H](NC(=O)CNC(=O)CCCc1ccc(O)c(OC)c1)C(C)C)C(=O)OCC [Compound 19, Diethyl (4-(4-Hydroxy-3-methoxyphenyl)butanoyl)glycyl-L-valyl-D-glutamate] | Decrease of NOD2 agonistic activity/potency by a factor, relative to 1: 156
2.66 ± 0.07 fold increase | 369 ± 4 | CCOC(=O)CC[C@@H](NC(=O)[C@@H](NC(=O)CNC(=O)C1CC1c1ccc(O)c(OC)c1)C(C)C)C(=O)OCC (stereo partly drawn) [Compound 28, Diethyl (2-(4-Hydroxy-3-methoxyphenyl)cyclopropane-1-carbonyl)glycyl-L-valyl-D-glutamate] | Decrease of NOD2 agonistic activity/potency by a factor, relative to 1: 4
1.86 ± 0.02 fold increase | 10200 ± 2620 | CCOC(=O)[C@@H](CCC(=O)N[C@@H](CCCCN)C(=O)OC)NC(=O)[C@@H](NC(=O)CNC(=O)/C=C/c1ccc(O)c(OC)c1)C(C)C [Compound 41, Methyl ((R)-5-Ethoxy-4-((S)-2-(2-((E)-3-(4-hydroxy-3-methoxyphenyl)acrylamido)acetamido)-3-methylbutanamido)-5-oxopentanoyl)-L-lysinate] | EC50: 10200 nM
2.63 ± 0.15 fold increase | 322 ± 7 | CCOC(=O)CC[C@@H](NC(=O)[C@@H](NC(=O)CNC(=O)C1CC1c1ccc(OC)c(OC)c1)C(C)C)C(=O)OCC (stereo partly drawn) [Compound 27, Diethyl (2-(3,4-Dimethoxyphenyl)cyclopropane-1-carbonyl)glycyl-L-valyl-D-glutamate] | Improved potency over 20 (ratio of EC50 versus compound 20): 2.4 fold

The next lines start with the compound.

Compound | NOD2 activity at 2 μM (fold increase) (18 h, mean ± SEM) | EC50 [1] [nM] | also measured
CCOC(=O)CC[C@@H](NC(=O)[C@@H](NC(=O)CNC(=O)[C@H]1C[C@@H]1c1ccc(F)c(F)c1)C(C)C)C(=O)OCC [Compound 29a] | 2.46 ± 0.12 fold increase | 66 ± 5 | –
CCCCCCCCCCCCCCCCCC(=O)Oc1ccc(/C=C/C(=O)NCC(=O)N[C@@H](CO)C(=O)N[C@H](CCC(=O)OCC)C(=O)OCC)cc1OC [Compound 80, Diethyl ((E)-3-(3-Methoxy-4-(stearoyloxy)phenyl)acryloyl)glycyl-L-seryl-D-glutamate] | 1.21 fold increase and 1.21 ± 0.06 fold increase | – | –
COc1cc(/C=C/C(=O)NCC(=O)N[C@H](C(=O)N[C@H](CCC(=O)OC(C)(C)C)C(=O)N(C)OC)C(C)C)ccc1O [Compound 63, tert-Butyl (R)-4-((S)-2-(2-((E)-3-(4-Hydroxy-3-methoxyphenyl)acrylamido)acetamido)-3-methylbutanamido)-5-(methoxy(methyl)amino)-5-oxopentanoate] | 1.36 ± 0.05 fold increase | – | –
CCOC(=O)CC[C@@H](NC(=O)[C@@H](NC(=O)CNC(=O)/C=C/c1ccc([N+](=O)[O-])cc1)C(C)C)C(=O)OCC [Compound 26, Diethyl ((E)-3-(4-Nitrophenyl)acryloyl)glycyl-L-valyl-D-glutamate] | 3.02 ± 0.07 fold increase | 49 ± 4 | –
CCCCCCCCCCCCCCCCCC(=O)NCCCC[C@H](NC(=O)CC[C@@H](NC(=O)[C@@H](NC(=O)CNC(=O)/C=C/c1ccc(O)c(OC)c1)C(C)C)C(=O)OCC)C(=O)OC [Compound 82, Methyl N^2-((R)-5-Ethoxy-4-((S)-2-(2-((E)-3-(4-hydroxy-3-methoxyphenyl)acrylamido)acetamido)-3-methylbutanamido)-5-oxopentanoyl)-N^6-stearoyl-L-lysinate] | 2.00 ± 0.03 fold increase | 11500 ± 3910 | EC50: 11500 nM
COc1cc(/C=C/C(=O)NCC(=O)N[C@H](C(=O)N[C@H](CCC(=O)OC2CCCC2)C(=O)OC2CCCC2)C(C)C)ccc1OC(C)=O [Compound 76, Dicyclopentyl ((E)-3-(4-Acetoxy-3-methoxyphenyl)acryloyl)glycyl-L-valyl-D-glutamate] | 2.67 ± 0.25 fold increase | 63 ± 0.2 | –
CONC(=O)CC[C@@H](NC(=O)[C@@H](NC(=O)CNC(=O)/C=C/c1ccc(O)c(OC)c1)C(C)C)C(=O)OC(C)(C)C [Compound 60, tert-Butyl N^2-((E)-3-(4-Hydroxy-3-methoxyphenyl)acryloyl)glycyl-L-valyl-N^5-methoxy-D-glutaminate] | 1.32 ± 0.02 fold increase | – | –
CCCCCCCCCCCCCCCCCCOC(=O)CC[C@@H](NC(=O)[C@@H](NC(=O)CNC(=O)/C=C/c1ccc(O)c(OC)c1)C(C)C)C(=O)OCCCCCCCCCCCCCCCCCC [Compound 72, Dioctadecyl ((E)-3-(4-Hydroxy-3-methoxyphenyl)acryloyl)glycyl-L-valyl-D-glutamate] | 1.32 ± 0.02 fold increase | – | NOD2 activation (in words): almost completely abrogated the NOD2 agonistic activity
CCCCNC(=O)CC[C@@H](NC(=O)[C@@H](NC(=O)CNC(=O)/C=C/c1ccc(O)c(OC)c1)C(C)C)C(=O)NCCCC [Compound 58, (R)-N^1,N^5-Dibutyl-2-((S)-2-(2-((E)-3-(4-hydroxy-3-methoxyphenyl)acrylamido)acetamido)-3-methylbutanamido)pentanediamide] | 1.30 ± 0.03 fold increase | – | –
CCOC(=O)CC[C@@H](NC(=O)[C@@H](NC(=O)CNC(=O)/C=C/c1ccc(C(C)C)cc1)C(C)C)C(=O)OCC [Compound 25, Diethyl ((E)-3-(4-Isopropylphenyl)acryloyl)glycyl-L-valyl-D-glutamate] | 2.83 ± 0.06 fold increase | 71 ± 4 | –
CCNC(=O)CC[C@@H](NC(=O)[C@@H](NC(=O)CNC(=O)/C=C/c1ccc(O)c(OC)c1)C(C)C)C(=O)NCC [Compound 57, (R)-N^1,N^5-Diethyl-2-((S)-2-(2-((E)-3-(4-hydroxy-3-methoxyphenyl)acrylamido)acetamido)-3-methylbutanamido)pentanediamide] | 1.45 ± 0.05 fold increase | – | NOD2 activation (in words): substantially diminished activity
COc1cc(/C=C/C(=O)NCC(=O)N[C@H](C(=O)N[C@H](CCC(=O)OC(C)(C)C)C(=O)N2CCCC2)C(C)C)ccc1O [Compound 64, tert-Butyl (R)-4-((S)-2-(2-((E)-3-(4-Hydroxy-3-methoxyphenyl)acrylamido)acetamido)-3-methylbutanamido)-5-oxo-5-(pyrrolidin-1-yl)pentanoate] | 1.33 ± 0.03 fold increase | – | –
COc1cc(/C=C/C(=O)NCC(=O)N[C@H](C(=O)N[C@H](CCC(=O)N(C)OC)C(=O)OC(C)(C)C)C(C)C)ccc1O [Compound 61, tert-Butyl N^2-((E)-3-(4-Hydroxy-3-methoxyphenyl)acryloyl)glycyl-L-valyl-N^5-methoxy-N^5-methyl-D-glutaminate] | 1.33 ± 0.03 fold increase | – | –
